Measured values taken from patent US12365687B2 (Hoffmann-La Roche Inc., priority 2021, dated 2025).

Tests used:
[1] = target: human GABAA α1β2γ1 receptor (Homo sapiens (Human), UniProt P14867+Q8N1C3); assay: Radioligand binding assay for γ1-containing GABAA subtypes, [3H]RO7239181 competition (α1β2γ1)
Procedure: The affinity of compounds at GABAA γ1 subunit-containing receptors was measured by competition for [^3H]RO7239181 (67.3 Ci/mmol; Roche) binding to membranes from HEK293F cells (ThermoFisher R79007) expressing human (transiently transfected) receptors of composition α5β2γ1, α2β2γ1, α1β2γ1.
Harvested pellets from HEK293F cells expressing the different GABAA receptor subtypes were resuspended in Mannitol Buffer pH 7.2-7.4 (Mannitol 0.29 M, Triethylamine 10 mM, Acetic acid 10 mM, EDTA 1 mM plus protease inhibitors (20 tablets Complete, Roche Diagnostics Cat. No. 05 056 489 001 per liter)), washed two times and then resuspended at 1:10 to 1:15 dilution in the same buffer. Cell disruption was performed by stirring the suspension in a Parr vessel #4637 at 435 psi for 15 minutes, and then the suspensions were centrifuged at 1000×g for 15 minutes at 4° C. (Beckman Avanti J-HC; rotor JS-4.2). The supernatant (S1) was transferred in a 2 l Schott flask and the pellet (P1) was resuspended with Mannitol Buffer up to 175 ml. The resuspended pellet was transferred into a 250 ml Corning centrifugal beaker and centrifuged at 1500×g for 10 minutes at 4° C. (Beckman Avanti J-HC; rotor JS-4.2). The supernatant (S1) was then transferred in the 2 l Schott flask and the pellet was discarded. The supernatants (S1) were centrifuged in 500 ml Beckman polypropylene centrifugal beaker at 15′000×g for 30 minutes at 4° C. (Beckman Avanti J-20 XP; rotor JLA-10.500). The pellet (P2) was resuspended with Mannitol Buffer 1:1 and frozen at −80° C. The supernatant (S2) was centrifuged in 100 ml Beckman polypropylene centrifugal tubes at 48000×g for 50 minutes at 4° C. (Beckman Avanti J-20 XP; rotor JA-18). The supernatant (S3) was discarded and the pellet (P3) was resuspended with 1:1 Mannitol Buffer. The P2 and P3 protein concentration was determined with the BIORAD Standard assay method with bovine serum albumin as standard and measured on the NANO-Drop 1000. The membrane suspension was aliquots (500 μl per tube) and stored at −80° C. until required.
Membrane homogenates were resuspended and polytronised (Polytron PT1200E Kinematica AG) in Potassium Phosphate 10 mM, KCl 100 mM binding buffer at pH 7.4 to a final assay concentration determined with a previous experiment.
Assays were incubated to equilibrium for 1 hour at 4° C. and then, membranes were filtered onto unifilter (96-well white microplate with bonded GF/C filters preincubated 20-50 minutes in 0.3% Polyethylenimine) with a Filtermate 196 harvester (Packard BioScience) and washed 4 times with cold Potassium Phosphate 10 mM pH 7.4, KCl 100 mM binding buffer. After anhydrousing, filter-retained radioactivity was detected by liquid scintillation counting. Ki values were calculated using Excel-Fit (Microsoft) and are the means of two determinations.

[2] = target: human GABAA α5β2γ1 receptor (Homo sapiens (Human), UniProt P31644+Q8N1C3); assay: Radioligand binding assay for γ1-containing GABAA subtypes, [3H]RO7239181 competition (α5β2γ1)
[3] = target: α2β2γ1 GABAA receptor subtype (Homo sapiens (Human), UniProt P47869+Q8N1C3); assay: Two-electrode voltage clamp electrophysiology in Xenopus oocytes expressing GABAA receptors (modulation of GABA EC20 current); format: cell-based; settings: for Efficacy (GABA)%: % modulation of GABA EC20 = 100*(Fold increase-1), α2β2γ1 oocytes, compound at approx. 30-fold Ki; for Fold increase h-GABA-A α2β2γ1 oocyte @ 30-fold Ki: Xenopus oocytes expressing α2β2γ1, compound at approx. 30-fold its Ki α2β2γ1, GABA EC20 current
How it was run: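 Two-electrode voltage clamp at −80 mV, room temperature, 3-5 days after mRNA injection into oocytes. GABA applied at EC20 for 1.5 min, twice, with compound during second application; at least 3 oocytes per concentration. Efficacy = extremum of point-by-point current ratio, expressed as 100×(fold increase−1).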

[4] = target: human GABAA α1β3γ2 receptor (Homo sapiens (Human), UniProt P14867+P18507); assay: Radioligand binding assay for γ2-containing GABAA subtypes, [3H]Flumazenil competition (α1β3γ2); settings: for γ2/γ1 Selectivity Ratio: Ki α1β3γ2 (nM)/Ki α2β2γ1 (nM); for LogSel: Log[Ki α1β3γ2 (nM)/Ki α2β2γ1 (nM)]
[5] = target: human GABAA α2β2γ1 receptor (Homo sapiens (Human), UniProt P47869+Q8N1C3); assay: Radioligand binding assay for γ1-containing GABAA subtypes, [3H]RO7239181 competition (α2β2γ1)
[6] = Ki h-GABAA α2β2γ1, [3H]RO7239181 competition binding, human GABAA α2β2γ1
[7] = Ki h-GABAA α2β2γ1, displacement of [3H]RO7239181, membranes of HEK293F cells expressing human receptors, means of two determinations

SMILES | Ki [1] | Ki [2] | Efficacy (GABA)% [3] | Fold increase h-GABA-A α2β2γ1 oocyte @ 30-fold Ki [3] | Ki [4] | γ2/γ1 Selectivity Ratio [4] | LogSel [4] | Ki [5, 6] | Ki [5, 7]
COC1CN(C(=O)c2nc3n(n2)-c2ccc(Cl)c(Cl)c2C(c2c(F)cccc2F)=N[C@H]3C)C1 [Example 16, [(4S)-7,8-dichloro-6-(2,6-difluorophenyl)-4-methyl-4H-[1,2,4]triazolo[1,5-a][1,4]benzodiazepin-2-yl]-(3-methoxyazetidin-1-yl)methanone] | 9.2 nM | 1.2 nM | 52% | 1.52 | 571 nM | 109.6 | 2.04 | 5.2 nM | 5.2 nM
C[C@@H]1N=C(c2ncccc2F)c2c(ccc(Cl)c2Cl)-n2nc(C(=O)N3CC[C@H](F)C3)nc21 [Example 79, [(4S)-7,8-dichloro-6-(3-fluoro-2-pyridyl)-4-methyl-4H-[1,2,4]triazolo[1,5-a][1,4]benzodiazepin-2-yl]-[(3S)-3-fluoropyrrolidin-1-yl]methanone] |  | 7.8 nM | 129% | 2.29 | 3720 nM | 76.8 | 1.89 | 48.4 nM | 48.4 nM
C[C@@H]1N=C(c2c(F)cccc2F)c2c(ccc(Cl)c2Cl)-n2nc(C#N)nc21 [Example 53, (4S)-7,8-dichloro-6-(2,6-difluorophenyl)-4-methyl-4H-[1,2,4]triazolo[1,5-a][1,4]benzodiazepine-2-carbonitrile] |  | 1.65 nM | 73% | 1.73 | 2550 nM | 41.5 | 1.62 | 61.4 nM | 61.4 nM
CO[C@H]1CCN(C(=O)c2nc3n(n2)-c2ccc(Cl)c(Cl)c2C(c2c(F)cccc2F)=N[C@H]3C)C1 [Example 45, [(4S)-7,8-dichloro-6-(2,6-difluorophenyl)-4-methyl-4H-[1,2,4]triazolo[1,5-a][1,4]benzodiazepin-2-yl]-[(3S)-3-methoxypyrrolidin-1-yl]methanone] |  | 2.2 nM | 41% | 1.41 | 1350 nM | 250.3 | 2.40 | 5.4 nM | 5.39 nM
C[C@@H]1N=C(c2ncccc2F)c2c(ccc(C(F)(F)F)c2Cl)-n2cc(C(=O)NCC3(O)CC3)nc21 [Example 164, (4S)-7-chloro-6-(3-fluoro-2-pyridyl)-N-[(1-hydroxycyclopropyl)methyl]-4-methy-8-(trifluoromethyl)-4H-imidazo[1,2-a][1,4]benzodiazepine-2-carboxamide] |  | 10.6 nM | 177% | 2.77 | 8520 nM | 253.2 | 2.40 | 35.2 nM | 33.7 nM
C[C@@H]1N=C(c2ncccc2F)c2c(ccc(C(F)(F)F)c2Cl)-n2cc(C(=O)N3CC(C(F)F)C3)nc21 [Example 156, [3-(difluoromethyl)azetidin-1-yl]-[(4S)-7-chloro-6-(3-fluoro-2-pyridyl)-4-methyl-8-(trifluoromethyl)-4H-imidazo[1,2-a][1,4]benzodiazepin-2-yl]methanone] |  | 15.5 nM | 168% | 2.68 | 10800 nM | 116.1 | 2.06 | 95.1 nM | 93.1 nM
C[C@@H]1N=C(c2ncccc2F)c2c(ccc(Cl)c2Cl)-n2nc(C(=O)N3CC4(CCOC4)C3)nc21 [Example 100, [(4S)-7,8-dichloro-6-(3-fluoro-2-pyridyl)-4-methyl-4H-[1,2,4]triazolo[1,5-a][1,4]benzodiazepin-2-yl]-(6-oxa-2-azaspiro[3.4]octan-2-yl)methanone] |  | 7.53 nM | 128% | 2.28 | 9110 nM | 219.5 | 2.34 | 41.5 nM | 41.5 nM
C[C@@H]1N=C(c2c(F)cccc2F)c2c(ccc(Cl)c2Cl)-n2nc(N3CC(C#N)C3)nc21 [Example 77, 1-[(4S)-7,8-dichloro-6-(2,6-difluorophenyl)-4-methyl-4H-[1,2,4]triazolo[1,5-a][1,4]benzodiazepin-2-yl]azetidine-3-carbonitrile] |  | 1 nM | 69% | 1.69 | 279 nM | 27.2 | 1.44 | 10.2 nM | 10.2 nM
C[C@@H]1N=C(c2ncccc2F)c2c(ccc(Cl)c2Cl)-n2nc(C(=O)NC3CC3)nc21 [Example 88, (4S)-7,8-dichloro-N-cyclopropyl-6-(3-fluoro-2-pyridyl)-4-methyl-4H-[1,2,4]triazolo[1,5-a][1,4]benzodiazepine-2-carboxamide] |  | 10.1 nM | 162% | 2.62 | 2820 nM | 31.2 | 1.49 | 90.6 nM | 90.6 nM
CCOC1CN(C(=O)c2nc3n(n2)-c2ccc(Cl)c(Cl)c2C(c2ncccc2F)=N[C@H]3C)C1 [Example 86, (3-ethoxyazetidin-1-yl)-[(4S)-7,8-dichloro-6-(3-fluoro-2-pyridyl)-4-methyl-4H-[1,2,4]triazolo[1,5-a][1,4]benzodiazepin-2-yl]methanone] |  | 6.13 nM | 97% | 1.97 | 2050 nM | 55.4 | 1.74 | 37 nM | 37 nM
Cc1cnc2n1-c1ccc(Cl)c(Cl)c1C(c1c(F)cccc1F)=N[C@H]2C [Example 111, (4S)-7,8-dichloro-6-(2,6-difluorophenyl)-1,4-dimethyl-4H-imidazo[1,2-a][1,4]benzodiazepine] |  | 1.24 nM | 35% | 1.35 | 235 nM | 45.6 | 1.66 | 5.2 nM | 5.16 nM
C[C@@H]1N=C(c2c(F)cccc2F)c2c(ccc(Cl)c2Cl)-n2nc(C(=O)N3CC(O)C3)nc21 [Example 25, [(4S)-7,8-dichloro-6-(2,6-difluorophenyl)-4-methyl-4H-[1,2,4]triazolo[1,5-a][1,4]benzodiazepin-2-yl]-(3-hydroxyazetidin-1-yl)methanone] |  | 1.44 nM | 63% | 1.63 | 688 nM | 172.8 | 2.24 | 4 nM | 3.98 nM
